# In BindingDB's records for patent US10676479 (Novartis AG, 2020):
# Target: Polycomb protein EED (Homo sapiens, UniProt O75530)
# Experiment: EED-H3K27Me3 Peptide Competition Binding Assay by AlphaScreen
# Experimental: Then 4 μL of detection beads mix was added to the plate and incubate in the dark at the rt for 1 h. The final concentration of donor and acceptor beads was 10 μg/mL for each. […] The data were then fit to a dose response equation using the program Helios (Novartis) to get the IC50 values. […] Compounds were diluted as described in the preceding section, and the assay was performed by adding 12 μL of 10 nM biotin-miniPEG-His6 peptide in the above buffer and incubating for 20 min at rt prior to addition of the beads to 10 μg/mL each. The plates were then incubated for 1 h at rt in dark before being read on EnVison.
# Chain of Polycomb protein EED (O75530 whole entry): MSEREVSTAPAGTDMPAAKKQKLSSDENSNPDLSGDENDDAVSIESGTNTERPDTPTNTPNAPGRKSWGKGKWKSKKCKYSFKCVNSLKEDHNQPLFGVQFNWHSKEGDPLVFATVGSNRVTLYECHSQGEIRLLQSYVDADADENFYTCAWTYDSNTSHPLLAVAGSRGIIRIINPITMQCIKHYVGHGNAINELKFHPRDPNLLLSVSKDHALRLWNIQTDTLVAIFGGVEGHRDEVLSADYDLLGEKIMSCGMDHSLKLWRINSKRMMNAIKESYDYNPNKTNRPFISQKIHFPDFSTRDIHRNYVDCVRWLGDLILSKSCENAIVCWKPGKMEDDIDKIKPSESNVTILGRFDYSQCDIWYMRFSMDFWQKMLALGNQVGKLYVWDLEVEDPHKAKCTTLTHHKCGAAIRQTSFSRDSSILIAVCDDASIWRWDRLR
row,IC50,Structure (SMILES)
1,8.1 nM,"CS(=O)(=O)c1ccc(-c2cnc(NCc3c(F)ccc4c3CCO4)n3cnc(-c4ccccc4)c23)cc1 [US10676479, Example 110]"
2,7 nM,"Cc1ncccc1-c1cnc(NCc2c(F)ccc3c2CCO3)n2cnc(C(=O)NC3COC3)c12 [US10676479, Example 106]"
3,24.9 nM,"CCN1CCN(c2ccc(-c3cnc(NCc4c(F)ccc5c4CCO5)n4cnc(C#N)c34)cn2)CC1 [US10676479, Example 81]"
